Data on 52 compounds can be found in patent publication US20240018102A1, “COMPOUNDS AND COMPOSITIONS FOR TREATING CONDITIONS ASSOCIATED WITH LPA RECEPTOR ACTIVITY” (Lhotse Bio, Inc., priority 2020, published 2024).

Each structure is given as a SMILES string.

For this test, the target named is T1, human LPA1 (Homo sapiens, UniProt Q92633).
T1 construct: expressed in transfected cells; host or cells: CHO-K1
T1 sequence (Q92633 whole entry): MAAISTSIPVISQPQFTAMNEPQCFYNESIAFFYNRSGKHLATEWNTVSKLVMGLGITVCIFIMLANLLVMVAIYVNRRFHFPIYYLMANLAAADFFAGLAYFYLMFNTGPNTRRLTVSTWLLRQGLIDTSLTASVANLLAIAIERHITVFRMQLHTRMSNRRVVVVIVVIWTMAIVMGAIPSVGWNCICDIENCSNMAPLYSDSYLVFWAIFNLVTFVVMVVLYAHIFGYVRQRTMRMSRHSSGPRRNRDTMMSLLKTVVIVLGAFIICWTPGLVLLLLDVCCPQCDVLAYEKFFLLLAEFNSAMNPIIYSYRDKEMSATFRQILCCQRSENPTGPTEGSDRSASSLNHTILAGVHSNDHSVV
Briefly: In vitro LPA1 calcium flux antagonist assay, Bioduro protocol. The note with it: CHO-K1 cells overexpressing human LPA1 and G15a; LPA challenge at EC80; calcium mobilization on FLIPR Tetra; read-out: IC50 (nM) in Assay B2. It counts as cell-based. The protocol:
In Vitro LPA1 Calcium Flux Antagonist Assay Bioduro Protocol
CHO-K1 cells overexpressing human LPA1 and G15a were seeded at a total volume of 20 uL (15000 cells/well) into Matrigel pre-coated 384-well plates (coming -3764) and incubated at 37° C. After overnight incubation, the cells were serum starved for 4 h. Assays were performed in dye loading buffer containing 1× Fluo-8 AM (AAT Bioquest, 21080) and 2.5 mM probenecid (Thermo Fisher, 36400) in HBSS/20 mM Hepes. After cell starvation, the medium was replaced with 20 uL of dye loading buffer and incubated at 37° C. for 30 min. Then 5 uL of 5× compound titrated in dye loading buffer was added to the cells and incubated for 30 min followed by LPA challenge at EC80. Calcium mobilization was measured on a FLIPR Tetra (MDS). For LPA EC80 determination, starved cells were incubated with 20 uL of dye loading buffer for 1 h, then 5 uL of 5×LPA titrated in dye loading buffer was added to the cells. Calcium signals induced by LPA was monitors on a FLIPR.
Percentage inhibition is calculated using the following formula:
% Inhibition=100%×(1−(mean RFU of test sample−mean RFU of DMSO)/(mean RFU of LPA control−mean RFU of DMSO)).
In general terms: Calcium assays in cells follow changes in intracellular calcium, usually with a dye or a luminescent sensor.
In general, IC50 refers to the concentration at which inhibition is half-maximal. As for `COc1cc([C@@H](O)[C@H](Cc2nc(CC(=O)O)c(C(C)C)s2)OC2CCCC2)cc(OC)c1C` [Compound 223], the IC50 worked out at 99.4 nM.

Take `COc1cc([C@@H](O)[C@H](Cn2cc3nccc(C(=O)O)c3n2)OC2CCCC2)cc(OC)c1Br` [Compound 224]: the IC50 is 327 nM.

In the case of `COc1cc([C@@H](O)[C@H](Cn2cc3cc(C#N)cc(C(=O)O)c3n2)OC2CCCC2)ccc1C(F)F` [Compound 225], the half-maximal inhibitory concentration (IC50) stood at 29.3 nM.

For `CCOc1cc([C@@H](O)[C@H](Cn2cc3cc(C#N)cc(C(=O)O)c3n2)OC2CCCC2)cc(OCC)c1C` [Compound 226], the half-inhibitory concentration (IC50) came to 28.9 nM.

With `COc1cc([C@@H](O)[C@H](Cn2cc3cc(C#N)cc(C(=O)O)c3n2)OC2CCCC2)ccc1C1CC1` [Compound 227], the IC50 was found to be 149 nM.

Consider `Cc1ccc([C@@H](O)[C@H](Cn2cc3cc(C#N)cc(C(=O)O)c3n2)OC2CCCC2)cc1OC(F)(F)F` [Compound 228], for which the half-inhibitory concentration (IC50) amounted to 62.2 nM.

In the case of `COc1cc([C@@H](O)[C@H](Cc2cc3cc(C4CC4)cc(C(=O)O)n3n2)OC2CCCC2)cc(OC)c1C` [Compound 229], the IC50 was 7.26 nM.

Take `CCc1cc(C(=O)O)c2nc(C[C@H](OC3CCCC3)[C@H](O)c3cc(OC)c(C)c(OC)c3)cn2c1` [Compound 230]: the concentration for half-maximal inhibition (IC50) worked out at 872 nM.

`COc1cc([C@@H](O)[C@H](Cn2cc3cc(C4CC4)nc(C(=O)O)c3n2)OC2CCCC2)cc(OC)c1C` [Compound 231]: the half-inhibitory concentration (IC50) worked out at 11.1 nM.

For `COc1cc([C@@H](O)[C@H](Cn2cc3cc(C#N)cc(C(=O)O)c3n2)OCC(C)C)cc(OC)c1C` [Compound 232], the IC50 amounted to 27.2 nM.

On to `COc1cc([C@@H](O)[C@H](Cc2nc3c(C(=O)O)cc(C)cc3s2)OCC(C)C)cc(OC)c1C` [Compound 234, 2-((2S,3R)-3-(3,5-dimethoxy-4-methylphenyl)-3-hydroxy-2-isobutoxypropyl)-6-methylbenzo[d]thiazole-4-carboxylic acid], for which the IC50 worked out at 3.71 nM.

As to `COc1cc(C(=O)O)n2nc(C[C@H](OC3CCCC3)[C@H](O)c3cc(OC)c(C)c(OC)c3)cc2c1` [Compound 235], the half-maximal inhibitory concentration (IC50) amounted to 40.8 nM.

In the case of `COc1cc(C(=O)O)c2nc(C[C@H](OCC(C)C)[C@H](O)c3cc(OC)c(C)c(OC)c3)sc2c1` [Compound 236], the IC50 amounted to 9.18 nM.

Consider `COc1cc([C@@H](O)[C@H](Cc2cc3c(OC)ccc(C(=O)O)n3n2)OC2CCCC2)cc(OC)c1C` [Compound 237, 2-((2S,3R)-2-(cyclopentyloxy)-3-(3,5-dimethoxy-4-methylphenyl)-3-hydroxypropyl)-4-methoxypyrazolo[1,5-a]pyridine-7-carboxylic acid], for which the 50% inhibitory concentration (IC50) worked out at 10.3 nM.

Regarding `COc1cc(C(=O)O)n2nc(C[C@H](OC3CCCC3)[C@H](O)c3cc(OC)c(C)cc3C)cc2c1` [Compound 238], the half-inhibitory concentration (IC50) is 53.3 nM.

Consider `CCc1cc(C(=O)O)n2nc(C[C@H](OCC(C)C)[C@H](O)c3cc(OC)c(C)c(OC)c3)cc2c1` [Compound 241], for which the IC50 turned out to be 26.7 nM.

Consider `COc1cc([C@@H](O)[C@H](Cc2cc3cc(C4CC4)cc(C(=O)O)n3n2)OCC(C)C)cc(OC)c1C` [Compound 242], for which the 50% inhibitory concentration (IC50) came to 7.5 nM.

With `COc1cc([C@@H](O)[C@H](Cc2nc3c(C(=O)O)cc(C(F)(F)F)cc3s2)OC2CCCC2)cc(OC)c1C` [Compound 244], the IC50 was 3.34 nM.

`COc1cc([C@@H](O)[C@H](Cc2nc3c(C(=O)O)cc(C4CC4)cc3s2)OC2CCCC2)cc(OC)c1C` [Compound 245]: the IC50 is 2.51 nM.

`COc1cc([C@@H](O)[C@H](Cc2nc3c(C(=O)O)cc(Cl)cc3s2)OC2CCCC2)cc(OC)c1C` [Compound 246]: the IC50 turned out to be 1.65 nM.

For `COc1cc(C(=O)O)c2nc(C[C@H](OC3CCCC3)[C@H](O)c3cc(OC)c(C)c(OC)c3)sc2c1` [Compound 247], the IC50 was found to be 1.93 nM.

In the case of `COc1cc([C@@H](O)[C@H](Cc2cn3cccc(C(=O)O)c3n2)OC2CCCC2)cc(OC)c1C` [Compound 248], the IC50 was not below 10000 nM.

For `COCc1sc(C[C@H](OC2CCCC2)[C@H](O)c2cc(OC)c(C)c(OC)c2)nc1CC(=O)O` [Compound 249], the IC50 amounted to 60.2 nM.

In the case of `COc1cc([C@@H](O)[C@H](Cc2cc3cc(C(F)(F)F)cc(C(=O)O)n3n2)OC2CCCC2)cc(OC)c1C` [Compound 250], the IC50 stood at 17.4 nM.

For `CCc1cc(C(=O)O)n2nc(C[C@H](OC3CCCC3)[C@H](O)c3cc(OC)c(C)c(OC)c3)cc2c1` [Compound 251], the half-maximal inhibitory concentration (IC50) came to 37.3 nM.

For the compound `COc1cc([C@@H](O)[C@H](Cc2cc3cc(C)cc(C(=O)O)n3n2)OCC(C)C)cc(OC)c1C` [Compound 252], the concentration for half-maximal inhibition (IC50) stood at 24.5 nM.

As for `COc1cc([C@@H](O)[C@H](Cc2nc3c(C(=O)O)cc(C(F)(F)F)cc3s2)OCC(C)C)cc(OC)c1C` [Compound 253], the half-inhibitory concentration (IC50) stood at 5.79 nM.

In the case of `CCc1cc(C(=O)O)c2nc(C[C@H](OCC(C)C)[C@H](O)c3cc(OC)c(C)c(OC)c3)sc2c1` [Compound 254], the IC50 came out at 8.93 nM.

On to `CCc1cc(C(=O)O)c2nc(C[C@H](OC3CCCC3)[C@H](O)c3cc(OC)c(C)c(OC)c3)sc2c1` [Compound 255], for which the IC50 came out at 5.75 nM.

On to `COc1cc([C@@H](O)[C@H](Cc2nc3c(C(=O)O)cc(C)cc3s2)OC2CCCC2)cc(OC)c1C` [Compound 256], for which the IC50 is 4.12 nM.

As for `CCOc1cc([C@@H](O)[C@H](Cc2nc3c(C(=O)O)cccc3s2)OC2CCCC2)cc(OCC)c1C#N` [Compound 257, 2-((2S,3R)-3-(4-cyano-3,5-diethoxyphenyl)-2-(cyclopentyloxy)-3-hydroxypropyl) benzo [d]thiazole-4-carboxylic acid], the half-maximal inhibitory concentration (IC50) turned out to be 47.2 nM.

Take `CCOc1cc([C@@H](O)[C@H](Cc2nc3c(C(=O)O)cccc3s2)OCC(C)C)ccc1C(C)=O` [Compound 258]: the IC50 stood at 449 nM.

Regarding `CCCCc1sc(C[C@H](OC2CCCC2)[C@H](O)c2cc(OC)c(C)c(OC)c2)nc1CC(=O)O` [Compound 259], the half-maximal inhibitory concentration (IC50) is 31.9 nM.

Take `CCCc1sc(C[C@H](OC2CCCC2)[C@H](O)c2cc(OC)c(C)c(OC)c2)nc1[C@H](C)C(=O)O` [Compound 260]: the half-inhibitory concentration (IC50) came out at 28 nM.

For the compound `CCCc1sc(C[C@H](OC2CCCC2)[C@H](O)c2cc(OC)c(C)c(OC)c2)nc1[C@@H](C)C(=O)O` [Compound 261], the IC50 came to 366 nM.

Consider `COc1cc([C@@H](O)[C@H](Cc2nc3c(C(=O)O)cc(F)cc3s2)OCC(C)C)cc(OC)c1C` [Compound 262], for which the IC50 stood at 15.8 nM.

Consider `COc1cc([C@@H](O)[C@H](Cc2nc3c(C(=O)O)cc(F)cc3s2)OCC2CCCC2)cc(OC)c1C` [Compound 263], for which the IC50 worked out at 10.1 nM.

With `COc1cc([C@@H](O)[C@H](Cc2cc3cccc(C(=O)O)n3n2)OC2Cc3ccccc3C2)cc(OC)c1C` [Compound 264], the half-maximal inhibitory concentration (IC50) was 5.33 nM.

For `COc1cc([C@@H](O)[C@H](Cc2cc3c(C(=O)O)cccc3s2)OC2CCCC2)cc(OC)c1C` [Compound 265, 2-((2S,3R)-2-(cyclopentyloxy)-3-(3,5-dimethoxy-4-methylphenyl)-3-hydroxypropyl)benzo[b]thiophene-4-carboxylic acid], the IC50 worked out at 22.7 nM.

On to `COc1cc([C@@H](O)[C@H](Cc2nc3c(C(=O)O)cc(F)cc3s2)OC2CCCC2)cc(OC)c1C` [Compound 266], for which the half-maximal inhibitory concentration (IC50) was determined as 7.18 nM.

Regarding `CCCc1sc(C[C@H](OCC(C)C)[C@H](O)c2cc(OC)c(C)c(OC)c2)nc1C(C)C(=O)O` (stereo partly shown) [Compound 267], the concentration for half-maximal inhibition (IC50) is 103 nM.

In the case of `COc1cc([C@@H](O)[C@H](Cc2nc(C(C)C(=O)O)c(C3CC3)s2)OC2CCCC2)cc(OC)c1C` (stereo partly shown) [Compound 268], the IC50 came out at 52 nM.

In the case of `COc1cc([C@@H](O)[C@H](Cc2nc3c(C(=O)O)cc(C4CC4)cc3s2)OCC(C)C)cc(OC)c1C` [Compound 271], the IC50 stood at 2.19 nM.

In the case of `CCCc1sc(C[C@H](OC2CCCC2)[C@H](O)c2cc(OC)c(C(C)=O)c(OC)c2)nc1C(C)C(=O)O` (stereo partly shown) [Compound 272], the half-maximal inhibitory concentration (IC50) turned out to be 71.6 nM.

Turning to `COc1cc([C@@H](O)[C@H](Cc2nc3c(C(=O)O)cccc3s2)OC2Cc3ccccc3C2)cc(OC)c1C` [Compound 273], the IC50 was 3.81 nM.

For `COc1cc(C(=O)O)c2nc(C[C@H](OC3Cc4ccccc4C3)[C@H](O)c3cc(OC)c(C)c(OC)c3)sc2c1` [Compound 274], the half-maximal inhibitory concentration (IC50) came out at 3.71 nM.

On to `CCOc1cc(C(=O)O)c2nc(C[C@H](OC3CCCC3)[C@H](O)c3cc(OC)c(C)c(OC)c3)sc2c1` [Compound 275], for which the IC50 is 1.65 nM.

For the compound `COc1cc([C@@H](O)[C@H](Cc2cc3c(OC)ccc(C(=O)O)n3n2)OC2Cc3ccccc3C2)cc(OC)c1C` [Compound 276], the IC50 was 5 nM.

In the case of `COc1cc([C@@H](O)[C@H](Cc2nc3c(C(=O)O)cc(OC)c(F)c3s2)OC2CCCC2)cc(OC)c1C` [Compound 279], the IC50 was found to be 2.71 nM.

Regarding `COc1cc([C@H](O)[C@H](Cc2nc3c(C(=O)O)cccc3s2)OC2CCCC2)cc(OC)c1C` [Compound 281], the IC50 was 717 nM.

As for `COc1cc(C(=O)O)c2nc(C[C@@H](OC3CCCC3)[C@H](O)c3cc(OC)c(C)c(OC)c3)sc2c1` [Compound 283], the IC50 was determined as 1760 nM.

Consider `COc1cc(C(=O)O)c2nc(C[C@@H](OC3CCCC3)[C@@H](O)c3cc(OC)c(C)c(OC)c3)sc2c1` [Compound 284], for which the IC50 was more than 10000 nM.
